# Assay results as given in ChEMBL document CHEMBL1132434, “Antitumor benzothiazoles. 8. Synthesis, metabolic formation, and biological properties of the C- and N-oxidation products of antitumor 2-(4-aminophenyl)benzothiazoles” (J Med Chem, 1999).
# Key:
# [1] = tested on: MDA-N; assay: Growth inhibition of the MDA-N Breast cancer cell line for 2-day in vitro assay.; assay type: functional; settings: Homo sapiens, 48 h
# [2] = tested on: T47D; assay: Growth inhibition of the T-47D Breast cancer cell line for 2-day in vitro assay.; assay type: functional; settings: Homo sapiens, 48 h
# [3] = tested on: MCF7; assay: In vitro cytotoxicity against MCF-7 human mammary carcinoma cells; assay type: functional, cell-based
# [4] = tested on: COLO 205; assay: Growth inhibition of the COLO-205 colon cancer cell line for 2-day in vitro assay.; assay type: functional; settings: Homo sapiens, COLO 205, 48 h
# [5] = tested on: DU-145; assay: Growth inhibition of the DU-145 Prostate cancer cell line for 2-day in vitro assay.; assay type: functional; settings: Homo sapiens, DU-145, 48 h
# [6] = tested on: ACHN; assay: Growth inhibition of the ACHN Renal cancer cell line for 2-day in vitro assay.; assay type: functional; settings: Homo sapiens, 48 h
# [7] = tested on: MOLT-4; assay: Growth inhibition of the MOLT-4 leukemia cell line for 2-day in vitro assay.; assay type: functional; settings: Homo sapiens, MOLT-4, 48 h
# [8] = tested on: CCRF-CEM; assay: Growth inhibition of the CCRF-CEM leukemia cell line for 2-day in vitro assay.; assay type: functional; settings: Homo sapiens, 48 h
# [9] = tested on: SF-539; assay: Growth inhibition of the SF-539 CNS cancer cell line for 2-day in vitro assay.; assay type: functional; settings: Homo sapiens, SF-539, 48 h
# [10] = tested on: NCI-H460; assay: Growth inhibition of the NCI-H460 non-small cell lung cancer cell line for 2-day in vitro assay.; assay type: functional; settings: Homo sapiens, NCI-H460, 48 h
# [11] = tested on: SF-268; assay: Growth inhibition of the SF-268 CNS cancer cell line for 2-day in vitro assay.; assay type: functional; settings: Homo sapiens, SF-268, 48 h
# [12] = tested on: SR; assay: Growth inhibition of the SR leukemia cell line for 2-day in vitro assay.; assay type: functional; settings: Homo sapiens, 48 h
# [13] = tested on: HL-60; assay: Growth inhibition of the HL-60(TB) leukemia cell line for 2-day in vitro assay.; assay type: functional; settings: Homo sapiens, HL-60, 48 h
# [14] = tested on: Hs-578T; assay: Growth inhibition of the Hs 578.T Breast cancer cell line for 2-day in vitro assay.; assay type: functional; settings: Homo sapiens, 48 h
# [15] = tested on: UACC-62; assay: Growth inhibition of the UACC-62 Melanoma cancer cell line for 2-day in vitro assay.; assay type: functional; settings: Homo sapiens, UACC-62, 48 h
# [16] = tested on: SNB-19; assay: Growth inhibition of the SNB19 CNS cancer cell line for 2-day in vitro assay.; assay type: functional; settings: Homo sapiens, SNB-19, 48 h
# [17] = tested on: A549; assay: Growth inhibition of the A549/ATCC non-small cell lung cancer cell line for 2-day in vitro assay.; assay type: functional; settings: Homo sapiens, A549, 48 h
# [18] = tested on: SW-620; assay: Growth inhibition of the SW-620 colon cancer cell line for 2-day in vitro assay.; assay type: functional; settings: Homo sapiens, SW-620, 48 h
# [19] = tested on: NCI-H522; assay: Growth inhibition of the NCI-H522 non-small cell lung cancer cell line for 2-day in vitro assay.; assay type: functional; settings: Homo sapiens, NCI-H522, 48 h
# [20] = tested on: SK-MEL-2; assay: Growth inhibition of the SK-MEL-2 Melanoma cancer cell line for 2-day in vitro assay.; assay type: functional; settings: Homo sapiens, SK-MEL-2, 48 h
# [21] = tested on: SN12C; assay: Growth inhibition of the SN12C Renal cancer cell line for 2-day in vitro assay.; assay type: functional; settings: Homo sapiens, 48 h
# [22] = tested on: BT-549; assay: Growth inhibition of the BT-549 Breast cancer cell line for 2-day in vitro assay.; assay type: functional; settings: Homo sapiens, BT-549, 48 h
# [23] = tested on: TK-10; assay: Growth inhibition of the TK-10 Renal cancer cell line for 2-day in vitro assay.; assay type: functional; settings: Homo sapiens, TK-10, 48 h
# [24] = tested on: HCT-116; assay: Growth inhibition of the HCT116 colon cancer cell line for 2-day in vitro assay.; assay type: functional; settings: Homo sapiens, HCT-116, 48 h
# [25] = tested on: HOP-62; assay: Growth inhibition of the HOP-62 non-small cell lung cancer cell line for 2-day in vitro assay.; assay type: functional; settings: Homo sapiens, HOP-62, 48 h
# [26] = tested on: Malme-3M; assay: Growth inhibition of the MALME-3M Melanoma cancer cell line for 2-day in vitro assay.; assay type: functional; settings: Homo sapiens, 48 h
# [27] = tested on: RXF 393; assay: Growth inhibition of the RXF-393 Renal cancer cell line for 2-day in vitro assay.; assay type: functional; settings: Homo sapiens, RXF 393, 48 h
# [28] = tested on: HT-29; assay: Growth inhibition of the HT-29 colon cancer cell line for 2-day in vitro assay.; assay type: functional; settings: Homo sapiens, HT-29, 48 h
# [29] = tested on: NCI-H226; assay: Growth inhibition of the NCI-H226 non-small cell lung cancer cell line for 2-day in vitro assay.; assay type: functional; settings: Homo sapiens, NCI-H226, 48 h
# [30] = tested on: SNB-75; assay: Growth inhibition of the SNB-75 CNS cancer cell line for 2-day in vitro assay.; assay type: functional; settings: Homo sapiens, SNB-75, 48 h
# [31] = tested on: OVCAR-4; assay: Growth inhibition of the OVCAR-4 Ovarian cancer cell line for 2-day in vitro assay.; assay type: functional; settings: Homo sapiens, OVCAR-4, 48 h
# [32] = tested on: SK-MEL-5; assay: Growth inhibition of the SK-MEL-5 Melanoma cancer cell line for 2-day in vitro assay.; assay type: functional; settings: Homo sapiens, SK-MEL-5, 48 h
# [33] = tested on: HCT-15; assay: Growth inhibition of the HCT-15 colon cancer cell line for 2-day in vitro assay.; assay type: functional; settings: Homo sapiens, HCT-15, 48 h
# [34] = tested on: NCI/ADR-RES; assay: Growth inhibition of the NCI/ADR-RES Breast cancer cell line for 2-day in vitro assay.; assay type: functional; settings: Homo sapiens, 48 h
# [35] = tested on: EKVX; assay: Growth inhibition of the EKVX non-small cell lung cancer cell line for 2-day in vitro assay.; assay type: functional; settings: Homo sapiens, 48 h
# [36] = tested on: LOX IMVI; assay: Growth inhibition of the LOX IMVI Melanoma cancer cell line for 2-day in vitro assay.; assay type: functional; settings: Homo sapiens, 48 h
# [37] = tested on: SK-MEL-28; assay: Growth inhibition of the SK-MEL-28 Melanoma cancer cell line for 2-day in vitro assay.; assay type: functional; settings: Homo sapiens, SK-MEL-28, 48 h
# [38] = tested on: NCI-H23; assay: Growth inhibition of the NCI-H23 non-small cell lung cancer cell line for 2-day in vitro assay.; assay type: functional; settings: Homo sapiens, NCI-H23, 48 h
# [39] = tested on: SK-OV-3; assay: Growth inhibition of the SK-OV-3 Ovarian cancer cell line for 2-day in vitro assay.; assay type: functional; settings: Homo sapiens, SK-OV-3, 48 h
# [40] = tested on: MDA-MB-435; assay: Growth inhibition of the […] Breast cancer cell line for 2-day in vitro assay.; assay type: functional; settings: Homo sapiens, MDA-MB-435, 48 h
# [41] = tested on: MDA-MB-231; assay: Growth inhibition of the […] Breast cancer cell line for 2-day in vitro assay.; assay type: functional; settings: Homo sapiens, MDA-MB-231, 48 h
# [42] = tested on: UO-31; assay: Growth inhibition of the UO-31 Renal cancer cell line for 2-day in vitro assay.; assay type: functional; settings: Homo sapiens, UO-31, 48 h
# [43] = tested on: OVCAR-8; assay: Growth inhibition of the OVCAR-8 Ovarian cancer cell line for 2-day in vitro assay.; assay type: functional; settings: Homo sapiens, OVCAR-8, 48 h
# [44] = tested on: PC-3; assay: Growth inhibition of the PC-3 Prostate cancer cell line for 2-day in vitro assay.; assay type: functional; settings: Homo sapiens, PC-3, 48 h
# [45] = tested on: MCF7; assay: Growth inhibition of the MCF-7 Breast cancer cell line for 2-day in vitro assay.; assay type: functional; settings: Homo sapiens, MCF7, 48 h
# [46] = tested on: 786-0; assay: Growth inhibition of the 786-O Renal cancer cell line for 2-day in vitro assay.; assay type: functional; settings: Homo sapiens, 786-0, 48 h
# [47] = tested on: KM12; assay: Growth inhibition of the KM12 colon cancer cell line for 2-day in vitro assay.; assay type: functional; settings: Homo sapiens, KM12, 48 h
# [48] = tested on: M14; assay: Growth inhibition of the M14 Melanoma cancer cell line for 2-day in vitro assay.; assay type: functional; settings: Homo sapiens, M14, 48 h
# [49] = tested on: UACC-257; assay: Growth inhibition of the UACC-257 Melanoma cancer cell line for 2-day in vitro assay.; assay type: functional; settings: Homo sapiens, UACC-257, 48 h
# [50] = tested on: SF-295; assay: Growth inhibition of the SF-295 CNS cancer cell line for 2-day in vitro assay.; assay type: functional; settings: Homo sapiens, SF-295, 48 h
# [51] = tested on: U-251; assay: Growth inhibition of the U251 CNS cancer cell line for 2-day in vitro assay.; assay type: functional; settings: Homo sapiens, U-251, 48 h
# [52] = tested on: HCC 2998; assay: Growth inhibition of the HCC2998 colon cancer cell line for 2-day in vitro assay.; assay type: functional; settings: Homo sapiens, HCC 2998, 48 h
# [53] = tested on: A498; assay: Growth inhibition of the A498 Renal cancer cell line for 2-day in vitro assay.; assay type: functional; settings: Homo sapiens, A498, 48 h
# [54] = tested on: NCI-H322M; assay: Growth inhibition of the NCI-H322M non-small cell lung cancer cell line for 2-day in vitro assay.; assay type: functional; settings: Homo sapiens, 48 h
# [55] = tested on: K562; assay: Growth inhibition of the K-562 leukemia cell line for 2-day in vitro assay.; assay type: functional; settings: Homo sapiens, K562, 48 h
compound,measurement,setting,value
Cc1cc(-c2nc3ccccc3s2)ccc1N,GI50,[1],97.7 µM
same,GI50,[2],0.107 µM
same,IC50,[3],< 0.001 µM
same,GI50,[4],51.3 µM
same,GI50,[5],61.7 µM
same,GI50,[6],51.3 µM
same,GI50,[7],19.5 µM
same,GI50,[8],6.46 µM
same,GI50,[9],> 100 µM
same,GI50,[10],53.7 µM
same,GI50,[11],> 100 µM
same,GI50,[12],17.4 µM
same,GI50,[13],8.71 µM
same,GI50,[14],> 100 µM
same,GI50,[15],70.8 µM
same,GI50,[16],> 100 µM
same,GI50,[17],28.8 µM
same,GI50,[18],> 100 µM
same,GI50,[19],32.4 µM
same,GI50,[20],> 100 µM
same,GI50,[21],50.1 µM
same,GI50,[22],66.1 µM
same,GI50,[23],0.186 µM
same,GI50,[24],43.7 µM
same,GI50,[25],> 100 µM
same,GI50,[26],> 100 µM
same,GI50,[27],67.6 µM
same,GI50,[28],29.5 µM
same,GI50,[29],0.355 µM
same,GI50,[30],33.1 µM
same,GI50,[31],0.55 µM
same,GI50,[32],21.9 µM
same,GI50,[33],47.9 µM
same,GI50,[34],93.3 µM
same,GI50,[35],34.7 µM
same,GI50,[36],37.2 µM
same,GI50,[37],> 100 µM
same,GI50,[38],58.9 µM
same,GI50,[39],> 100 µM
same,GI50,[40],79.4 µM
same,GI50,[41],66.1 µM
same,GI50,[42],6.46 µM
same,GI50,[43],> 100 µM
same,GI50,[44],31.6 µM
same,GI50,[45],0.0316 µM
same,GI50,[46],> 100 µM
same,GI50,[47],> 100 µM
same,GI50,[48],57.5 µM
same,GI50,[49],74.1 µM
same,GI50,[50],64.6 µM
same,GI50,[51],66.1 µM
same,GI50,[52],0.251 µM
same,GI50,[53],42.7 µM
same,GI50,[54],43.7 µM
same,GI50,[55],60.3 µM
Nc1ccc(-c2nc3ccccc3s2)cc1Cl,IC50,[3],< 0.001 µM
Nc1ccc(-c2nc3ccc(O)cc3s2)cc1Cl,IC50,[3],54.5 µM
CC(=O)Nc1ccc(-c2nc3ccc(O)cc3s2)cc1C,IC50,[3],46.1 µM
Nc1ccc(-c2nc3cc(O)ccc3s2)cc1Cl,IC50,[3],60.6 µM
CC(=O)Nc1ccc(-c2nc3cc(O)ccc3s2)cc1C,IC50,[3],72.5 µM
